Source: patent US20220040319A1, “METHODS OF TREATING OCULAR CANCER USING ANTI-MET ANTIBODIES AND BISPECIFIC ANTIGEN BINDING MOLECULES THAT BIND MET” (Regeneron Pharmaceuticals, Inc., priority 2019, published 2022)

Tests used:
[1] = tested on: NCI-H596 cells; experiment: NCI-H596 growth in soft agar, AlamarBlue, two weeks; assay type: cell-based, human; settings: antibody 5 μg/ml (combination 2.5 μg/ml each), HGF 100 ng/mL
Procedure: The effect of a MET×MET bispecific antibody on the growth of human non-small cell lung cancer (NSCLC) cells (NCI-H596) was assessed in vitro. 10,000 NCI-H596 lung adenosquamous carcinoma cells (Nair et al., J. Nat'l. Cancer Inst. 86(5): 378-383, 1994) were seeded in 96 well plates on a layer of 0.66% agar in media supplemented with 1% fetal bovine serum (FBS). The cells were cultured in RPMI 1640 media supplemented with 1% FBS with 0.3% agarose. […] The cells were subsequently incubated with 5% CO2 at 37° C. After two weeks, relative cell growth was determined by measuring the reduction of the indicator dye, ALAMAR BLUE® (Thermo Fischer Scientific, Waltham, Mass.), to its highly fluorescent form in a SPECTRAMAX® M3 plate reader (Molecular Devices, Sunnyvale, Calif.). Increasing fluorescence correlates with cell growth. Table 18 and FIG. 14 depict the relative NCI-H596 cell growth for each antibody treatment normalized to control (no treatment) NCI-H596 cell growth.

[2] = tested on: MET pathway in NCI-H596 cells; experiment: MET and ERK phosphorylation in NCI-H596 cells, immunoblot; assay type: cell-based, human; settings: fold change relative to control, HGF 50 ng/ml, antibody 10 μg/ml
Procedure: 250,000 NCI-H596 cells were seeded in a 12 well plate and cultured in RPMI Media supplemented with 10% FBS. […] The cells were subsequently incubated in 5% CO2 at 37° C. After 0, 2, 6 or 18 hours, cell lysates were prepared, protein content was normalized and immunoblot analysis was performed. MET phosphorylation and ERK phosphorylation were quantified with the ImageJ image processing program (T. Collins, BioTechniques 43: S25-S30, 2007). Phosphorylation levels were normalized to the Tubulin loading control and are expressed as fold change relative to control treatment.

HGF: hepatocyte growth factor, MET agonist ligand [reference compound]
Relative Cell Growth (n = 3) [1]: 7.877
Phospho-ERK (mean ± SD) ([2]; 2 hours): 16.7 ± 1.6
Phospho-MET (mean ± SD) ([2]; 2 hours): 202.3 ± 38.7
Phospho-ERK (mean ± SD) ([2]; 6 hours): 12.4 ± 3.9
Phospho-MET (mean ± SD) ([2]; 6 hours): 38.9 ± 4.9
Phospho-ERK (mean ± SD) ([2]; 18 hours): 12.4 ± 0.9
Phospho-MET (mean ± SD) ([2]; 18 hours): 59.2 ± 24.4
